Legend:
[1] = Bitterness evaluation of carbonated water (flavor comparison by 10 panelists); assay type: in vivo; conditions: for A: the number of panelists who felt no difference from sedanenolide-free / B: the number of panelists who felt some reduction in bitterness / Flavor judgment: the number of panelists who judged it as most proper bitterness / N: the number of panelists who hardly felt bitterness: 10 panelists
Protocol: Sedanenolide was added as a bitterness-improving agent (masking agent for bitterness) of the present invention to sufficiently deaerated pure water at the concentrations shown in the following Table 4, and then carbon dioxide gas was sealed in each bottle at a pressure of 294 KPa to obtain carbonated water of the present invention.

[2] = Astringency evaluation of green tea drink (flavor comparison by 10 panelists); assay type: in vivo; conditions: for A: the number of panelists who felt no difference from sedanenolide-free / B: the number of panelists who felt some reduction in astringency / Flavor judgment: the number of panelists who judged it as most proper astringency / N: the number of panelists who hardly felt astringency: 10 panelists
Protocol: Five thousand grams of hot water (containing 0.03% of sodium ascorbate) of 95° C. was added to 100 g of domestic green tea (second picking tea), followed by extraction for 5 min while sometimes stirring. Subsequently, solid-liquid separation with flannel filter was performed to obtain 4500 g of an extract (Bx 0.7°). This extract was adjusted to Bx 0.5° with deionized water to obtain green tea extract having strong astringency. Sedanenolide was added as a taste-improving agent (masking agent for astringency) of the present invention to the resulting extract at the concentrations shown in the following Table 4 to obtain green tea drinks.

[3] = sedanenolide 0.01 ppb in carbonated water
[4] = sedanenolide 0.01 ppm in carbonated water
[5] = sedanenolide 0.1 ppb in carbonated water
[6] = sedanenolide 0.1 ppm in carbonated water
[7] = sedanenolide 1 ppb in carbonated water
[8] = sedanenolide 1 ppm in carbonated water
[9] = sedanenolide 1 ppt in carbonated water
[10] = sedanenolide 10 ppm in carbonated water
[11] = sedanenolide 0.01 ppb in green tea drink having strong astringency
[12] = sedanenolide 0.01 ppm in green tea drink having strong astringency
[13] = sedanenolide 0.1 ppb in green tea drink having strong astringency
[14] = sedanenolide 0.1 ppm in green tea drink having strong astringency
[15] = sedanenolide 1 ppb in green tea drink having strong astringency
[16] = sedanenolide 1 ppm in green tea drink having strong astringency
[17] = sedanenolide 1 ppt in green tea drink having strong astringency
[18] = sedanenolide 10 ppm in green tea drink having strong astringency

CCCC[C@@H]1OC(=O)C2=C1CCC=C2 [sedanenolide]
overall result of bitterness masking ([1]; amount of sedanenolide about 0.1 ppb to 1 ppm, carbonated water): particularly good results were obtained
bitterness of carbonated water (judgment) ([1]; carbonated water containing 0.01 ppb to 10 ppm of sedanenolide): masked
A: the number of panelists who felt no difference from sedanenolide-free [1, 3]: 7
B: the number of panelists who felt some reduction in bitterness [1, 3]: 3
Flavor judgment: the number of panelists who judged it as most proper bitterness [1, 3]: 0
N: the number of panelists who hardly felt bitterness [1, 3]: 0
reduction in bitterness at low concentration ([1]; sedanenolide 0.01 ppb, carbonated water): some panelists felt some reduction in bitterness
A: the number of panelists who felt no difference from sedanenolide-free [1, 4]: 2
B: the number of panelists who felt some reduction in bitterness [1, 4]: 2
Flavor judgment: the number of panelists who judged it as most proper bitterness [1, 4]: 1
N: the number of panelists who hardly felt bitterness [1, 4]: 6
A: the number of panelists who felt no difference from sedanenolide-free [1, 5]: 5
B: the number of panelists who felt some reduction in bitterness [1, 5]: 5
Flavor judgment: the number of panelists who judged it as most proper bitterness [1, 5]: 0
N: the number of panelists who hardly felt bitterness [1, 5]: 0
A: the number of panelists who felt no difference from sedanenolide-free [1, 6]: 0
B: the number of panelists who felt some reduction in bitterness [1, 6]: 3
Flavor judgment: the number of panelists who judged it as most proper bitterness [1, 6]: 4
N: the number of panelists who hardly felt bitterness [1, 6]: 7
A: the number of panelists who felt no difference from sedanenolide-free [1, 7]: 4
B: the number of panelists who felt some reduction in bitterness [1, 7]: 6
Flavor judgment: the number of panelists who judged it as most proper bitterness [1, 7]: 0
N: the number of panelists who hardly felt bitterness [1, 7]: 0
A: the number of panelists who felt no difference from sedanenolide-free [1, 8]: 0
B: the number of panelists who felt some reduction in bitterness [1, 8]: 3
Flavor judgment: the number of panelists who judged it as most proper bitterness [1, 8]: 5
N: the number of panelists who hardly felt bitterness [1, 8]: 7
A: the number of panelists who felt no difference from sedanenolide-free [1, 9]: 10
B: the number of panelists who felt some reduction in bitterness [1, 9]: 0
Flavor judgment: the number of panelists who judged it as most proper bitterness [1, 9]: 0
N: the number of panelists who hardly felt bitterness [1, 9]: 0
A: the number of panelists who felt no difference from sedanenolide-free [1, 10]: 0
B: the number of panelists who felt some reduction in bitterness [1, 10]: 2
Flavor judgment: the number of panelists who judged it as most proper bitterness [1, 10]: 0
N: the number of panelists who hardly felt bitterness [1, 10]: 8
overall result of astringency masking ([2]; amount of sedanenolide about 0.1 ppb to 1 ppm, green tea drink): particularly good results were obtained
astringency of green tea drink (judgment) ([2]; green tea drink containing 0.01 ppb to 10 ppm of sedanenolide): masked
A: the number of panelists who felt no difference from sedanenolide-free [2, 11]: 8
B: the number of panelists who felt some reduction in astringency [2, 11]: 2
Flavor judgment: the number of panelists who judged it as most proper astringency [2, 11]: 0
N: the number of panelists who hardly felt astringency [2, 11]: 0
reduction in bitterness at low concentration ([2]; sedanenolide 0.01 ppb, green tea drink having strong astringency): some panelists felt some reduction in bitterness
A: the number of panelists who felt no difference from sedanenolide-free [2, 12]: 3
B: the number of panelists who felt some reduction in astringency [2, 12]: 6
Flavor judgment: the number of panelists who judged it as most proper astringency [2, 12]: 2
N: the number of panelists who hardly felt astringency [2, 12]: 1
A: the number of panelists who felt no difference from sedanenolide-free [2, 13]: 6
B: the number of panelists who felt some reduction in astringency [2, 13]: 3
Flavor judgment: the number of panelists who judged it as most proper astringency [2, 13]: 0
N: the number of panelists who hardly felt astringency [2, 13]: 1
A: the number of panelists who felt no difference from sedanenolide-free [2, 14]: 0
B: the number of panelists who felt some reduction in astringency [2, 14]: 3
Flavor judgment: the number of panelists who judged it as most proper astringency [2, 14]: 5
N: the number of panelists who hardly felt astringency [2, 14]: 7
A: the number of panelists who felt no difference from sedanenolide-free [2, 15]: 5
B: the number of panelists who felt some reduction in astringency [2, 15]: 5
Flavor judgment: the number of panelists who judged it as most proper astringency [2, 15]: 0
N: the number of panelists who hardly felt astringency [2, 15]: 0
A: the number of panelists who felt no difference from sedanenolide-free [2, 16]: 0
B: the number of panelists who felt some reduction in astringency [2, 16]: 3
Flavor judgment: the number of panelists who judged it as most proper astringency [2, 16]: 3
N: the number of panelists who hardly felt astringency [2, 16]: 7
A: the number of panelists who felt no difference from sedanenolide-free [2, 17]: 10
B: the number of panelists who felt some reduction in astringency [2, 17]: 0
Flavor judgment: the number of panelists who judged it as most proper astringency [2, 17]: 0
N: the number of panelists who hardly felt astringency [2, 17]: 0
A: the number of panelists who felt no difference from sedanenolide-free [2, 18]: 0
B: the number of panelists who felt some reduction in astringency [2, 18]: 2
Flavor judgment: the number of panelists who judged it as most proper astringency [2, 18]: 0
N: the number of panelists who hardly felt astringency [2, 18]: 8

Reference: patent publication US20120231141A1, “BITTERNESS-IMPROVING AGENT FOR BITTER FOOD AND DRINK AND ASTRINGENCY-IMPROVING AGENT FOR ASTRINGENT FOOD AND DRINK” (priority 2009, published 2012)
